The text below walks through data of patent US7323485B2, “4-(substituted cycloalkylmethyl) imidazole-2-thiones, 4-(substituted cycloalkenylmethyl) imidazole-2-thiones, 4-(substituted cycloalkylmethyl) imidazol-2-ones and 4-(substituted cycloalkenylmethyl) imidazol-2-ones and related compounds” (Allergan, Inc., priority 2002, dated 2008).

Where two headings read alike, the source gives them in different places.

The test system of data set [1] is male Sprague-Dawley rats. The data set can be described thus: Sedative activity (exploratory behavior). As to conditions: intraperitoneally, up to a dose of 1 mg/kg. The class given is in vivo, rat. As to the method: To test sedation, six male Sprague-Dawley rats are given up to 3 mg/kg of the test compound in a saline or DMSO vehicle by intraperitoneal injection (i.p.). Sedation is graded 30 minutes following administration of the drug by monitoring locomotor skills as follows.
The Sprague-Dawley rats are weighed and 1 ml/kg body weight of an appropriate concentration (ie. 3 mg/ml for a final dose of 3 mg/kg) drug solution is injected intraperitoneally. Typically the test compound is formulated in approximately 10 to 50% DMSO. The results are compared to controls that are injected with 1 ml/kg saline or 10 to 50% DMSO. Rat activity is then determined 30 minutes after injection of the drug solution. Rats are placed in a dark covered chamber and a digicom analyzer (Omnitech Electronic) quantitates their exploratory behavior for a five-minute period. The machine records each time the rat interrupts an array of 32 photoelectric beams in the X and Y orientation.

Data set [2] relates to rats with ligated L5 and L6 spinal nerves. The data set can be described thus: Chung model of neuropathic pain (tactile allodynia, von Frey hairs). The data set is classed as in vivo. As to conditions: Rattus norvegicus, 0.5 h, 30 min following drug administration, read-out: % Pain Reversal ± SEM; for inhibition in vivo at 0.01 mg/kg: 10 μg/kg i.p. From the text:
A model in accordance with Kim and Chung 1992, Pain […], pp 355-363 (Chung model), for chronic pain (in particular peripheral neuropathy) involves the surgical ligation of the L5 (and optionally the L6) spinal nerves on one side in experimental animals. Rats recovering from the surgery gain weight and display a level of general activity similar to that of normal rats. However, these rats develop abnormalities of the foot, wherein the hindpaw is moderately everted and the toes are held together. More importantly, the hindpaw on the side affected by the surgery appears to become sensitive to pain from low-threshold mechanical stimuli, such as that producing a faint sensation of touch in a human, within about 1 week following surgery. This sensitivity to normally non-painful touch is called “tactile allodynia” and lasts for at least two months. The response includes lifting the affected hindpaw to escape from the stimulus, licking the paw and holding it in the air for many seconds. None of these responses is normally seen in the control group.
Rats are anesthetized before surgery. The surgical site is shaved and prepared either with betadine or Novacaine. Incision is made from the thoracic vertebra Xlll down toward the sacrum. Muscle tissue is separated from the spinal vertebra (left side) at the L4-S2 levels. The L6 vertebra is located and the transverse process is carefully removed with a small rongeur to expose the L4-L6 spinal nerves. The L5 and L6 spinal nerves are isolated and tightly ligated with 6-0 silk thread. The same procedure is done on the right side as a control, except no ligation of the spinal nerves is performed.
A complete hemostasis is confirmed, then the wounds are sutured. A small amount of antibiotic ointment is applied to the incised area, and the rat is transferred to the recovery plastic cage under a regulated heat-temperature lamp. On the day of the experiment, at least seven days after the surgery, typically six rats per test group are administered the test drugs by intraperitoneal (i.p.) injection or oral gavage. For i.p. injection, the compounds are formulated in approximately 10 to 50% DMSO and given in a volume of 1 ml/kg body weight.
Tactile allodynia is measured prior to and 30 minutes after drug administration using von Frey hairs that are a series of fine hairs with incremental differences in stiffness. Rats are placed in a plastic cage with a wire mesh bottom and allowed to acclimate for approximately 30 minutes. The von Frey hairs are applied perpendicularly through the mesh to the mid-plantar region of the rats' hindpaw with sufficient force to cause slight buckling and held for 6-8 seconds. The applied force has been calculated to range from 0.41 to 15.1 grams. If the paw is sharply withdrawn, it is considered a positive response. A normal animal will not respond to stimuli in this range, but a surgically ligated paw will be withdrawn in response to a 1-2 gram hair. The 50% paw withdrawal threshold is determined using the method of Dixon, W. J., Ann. Rev. Pharmacol. Toxicol. 20:441-462 (1980). The post-drug threshold is compared to the pre-drug threshold and the percent reversal of tactile sensitivity is calculated based on a normal threshold of 15.1 grams. The results are expressed in percent (%) MPE, where the MPE value reflects the percentage reversal of pain threshold to that of a normal animal (100%). Table 3 below indicates results of this test with Compounds 1, 7 and 29 of the invention, administered i.p. and in oral doses.

With `S=c1[nH]cc(CC2CC=CC2)[nH]1` [Compound 18, 4-cyclopent-3-enylmethyl-1,3-dihydro-imidazole-2-thione], the sedative effect result in data set [1] was “no sedative effect”. Further, the inhibition in vivo at 0.01 mg/kg in data set [2] (ip) was found to be 5 ± 2.5%. Moreover, the inhibition in vivo at 0.03 mg/kg turned out to be 35 ± 5.2% in data set [2] (ip, 30 μg/kg i.p.) and 1 ± 2% in data set [2] (po, 30 μg/kg p.o.). Besides, the inhibition in vivo at 0.1 mg/kg in data set [2] (ip, 100 μg/kg i.p.) stood at 72 ± 6.6%; in data set [2] (po, 100 μg/kg p.o.), 68 ± 4.4%. For the same compound, the inhibition in vivo at 0.3 mg/kg in data set [2] (ip, 300 μg/kg i.p.) worked out at 71 ± 6.4%; in data set [2] (po, 300 μg/kg p.o.), 82 ± 5.9%. Further, the inhibition in vivo at 1 mg/kg in data set [2] (po, 1000 μg/kg p.o.) worked out at 82 ± 8.1%.
As to `O=c1[nH]cc(CC2CCc3cc(F)ccc32)[nH]1` (stereo not drawn) [Compound 49, 4-(5-fluoro-indan-1-ylmethyl)-1,3-dihydro-imidazol-2-one], the sedative effect entry in data set [1] is “no sedative effect”. For the same compound, the inhibition in vivo at 0.001 mg/kg in data set [2] (ip, 1 μg/kg i.p.) is 2.3 ± 1.3%. Moreover, the inhibition in vivo at 0.003 mg/kg in data set [2] (ip, 3 μg/kg i.p.) was 23 ± 3.8%. Further, in data set [2] (ip), the inhibition in vivo at 0.01 mg/kg was 39 ± 7.7%. The inhibition in vivo at 0.03 mg/kg in data set [2] (ip, 30 μg/kg i.p.) worked out at 72 ± 8.2%; in data set [2] (po, 30 μg/kg p.o.), 43 ± 7.1%. Further, the inhibition in vivo at 0.1 mg/kg in data set [2] (ip, 100 μg/kg i.p.) amounted to 80 ± 6.5%; in data set [2] (po, 100 μg/kg p.o.), 68 ± 4.8%. The inhibition in vivo at 0.3 mg/kg in data set [2] (po, 300 μg/kg p.o.) is 74 ± 6.8%.
